# Source: patent publication US10513538B2, “Dipeptidyl peptidase-IV (DPPIV), inhibitory peptide compound, composition containing the same, and production method for the same” (MARUHA NICHIRO CORPORATION, priority 2013, dated 2019)
# Residues, ends and D or L forms follow the SMILES beside them.
# Molecular target: T1, DPPIV (Human, recombinant) (Homo sapiens, UniProt P27487)
# T1 construct: purchased Biomol (DPPIV Drug Discovery Assay Kit, Enzo Life Sciences, Inc.)
# Assay: DPPIV inhibitory activity measurement with partly modified DPPIV Drug Discovery Assay Kit (AMC substrate)
# Type: biochemical
# Conditions: contribution of the peptide to the DPPIV inhibitory activity of the salmon milt peptide composition; from content, peptide IC50 and composition IC50
# Method: Each of the DPPIV inhibitory peptide compounds obtained in Example 1 was measured for the DPPIV inhibitory activity. The measurement was performed by using a partly modified DPPIV Drug Discovery Assay Kit (manufactured by Enzo Life Sciences, Inc.). As a substrate of a DPPIV enzyme, an AMC substrate (H-Gly-Pro-amino-4-methylcoumarin, BML-P189-9090; manufactured by Biomol) was used, as an enzyme, DPPIV (Human, recombinant; manufactured by Biomol) was used, and as a control inhibitor, Diprotin A (manufactured by Peptide Institute Inc.) was used. […] To the resultant solution, 50 μL of an AMC substrate solution (0.01 mM) pre-incubated at 37° C. was added, and a fluorescence intensity was measured at an excitation wavelength of 340 nm and a measurement wavelength of 460 nm every 5 minutes for 30 minutes by using a microplate reader (GENio Pro, manufactured by TECAN). The activity in the case without sample was set as 100%, and the relative activity of each sample was calculated. The measurement was repeatedly performed three times for each sample to obtain an average.
# Each of the peptide compositions thus obtained was dissolved in distilled water in a concentration of 3 mg/mL, the resultant was subjected to a 0.45 μm membrane filter treatment, and the DPPIV inhibitory activity test was performed in the same manner as in Example 2.
# Each peptide identified by the LC-MS analysis of Example 6 was synthesized and dissolved in distilled water to find the DPPIV inhibitory activity in the same manner as in Example 2.
# T1 sequence (P27487 whole entry): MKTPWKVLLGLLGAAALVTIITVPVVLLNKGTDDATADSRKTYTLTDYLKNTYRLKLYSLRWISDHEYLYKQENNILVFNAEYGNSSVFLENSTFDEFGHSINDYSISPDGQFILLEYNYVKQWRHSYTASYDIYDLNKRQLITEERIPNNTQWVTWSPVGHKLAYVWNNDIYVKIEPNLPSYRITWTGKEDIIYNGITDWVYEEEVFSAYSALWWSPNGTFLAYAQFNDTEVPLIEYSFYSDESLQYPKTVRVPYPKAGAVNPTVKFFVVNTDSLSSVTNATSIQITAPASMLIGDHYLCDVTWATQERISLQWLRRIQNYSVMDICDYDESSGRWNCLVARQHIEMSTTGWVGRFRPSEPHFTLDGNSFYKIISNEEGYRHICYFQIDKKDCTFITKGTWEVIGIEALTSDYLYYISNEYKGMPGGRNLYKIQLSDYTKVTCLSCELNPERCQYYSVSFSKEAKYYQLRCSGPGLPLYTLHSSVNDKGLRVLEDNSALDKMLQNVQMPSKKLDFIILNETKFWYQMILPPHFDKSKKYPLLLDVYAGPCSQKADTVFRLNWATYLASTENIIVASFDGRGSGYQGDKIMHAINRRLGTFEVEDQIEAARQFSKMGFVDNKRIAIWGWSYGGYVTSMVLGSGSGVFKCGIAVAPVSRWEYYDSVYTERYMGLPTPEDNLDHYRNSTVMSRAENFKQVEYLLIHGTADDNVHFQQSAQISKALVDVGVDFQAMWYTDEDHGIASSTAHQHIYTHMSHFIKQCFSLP
row,Activity Contribution Ratio (%),Structure (SMILES)
1,0.4%,"CC(C)[C@H](NC(=O)[C@@H]1CCCN1C(=O)[C@@H](N)Cc1ccccc1)C(=O)NCC(=O)O [FPVG, Phe-Pro-Val-Gly] (H-FPVG-OH; N-terminus and C-terminus assumed)"
2,6.6%,"CC[C@H](C)[C@H](N)C(=O)N1CCC[C@H]1C(=O)O [IP, Ile-Pro] (H-Ile-Pro-OH; N-terminus and C-terminus assumed)"
3,0.2%,"CC(C)C[C@H](NC(=O)[C@@H](NC(=O)[C@@H]1CCCN1C(=O)[C@@H](N)CC(C)C)C(C)C)C(=O)O [LPVL, Leu-Pro-Val-Leu] (H-LPVL-OH; N-terminus and C-terminus assumed)"

# Same assay, conditions: synthesized peptide, serially diluted
row,IC50,Structure (SMILES)
1,40 µM,"CC(C)[C@H](NC(=O)[C@@H]1CCCN1C(=O)[C@@H](N)Cc1ccccc1)C(=O)NCC(=O)O [FPVG, Phe-Pro-Val-Gly] (H-FPVG-OH; N-terminus and C-terminus assumed)"
2,66 µM,"CC[C@H](C)[C@H](N)C(=O)N1CCC[C@H]1C(=O)O [IP, Ile-Pro] (H-Ile-Pro-OH; N-terminus and C-terminus assumed)"
3,> 100 µM,"CC(C)C[C@H](N)C(=O)N1CCC[C@H]1C(=O)O [LP, Leu -Pro] (H-Leu-Pro-OH)"
4,46 µM,"CC(C)C[C@H](NC(=O)[C@@H](NC(=O)[C@@H]1CCCN1C(=O)[C@@H](N)CC(C)C)C(C)C)C(=O)O [LPVL, Leu-Pro-Val-Leu] (H-LPVL-OH; N-terminus and C-terminus assumed)"

row,Structure (SMILES),IC50
1,"N[C@@H](Cc1ccccc1)C(=O)N1CCC[C@H]1C(=O)O [FP, Phe-Pro] (H-Phe-Pro-OH)",> 100 µM
